Like-named read-outs stand apart in the source and are kept apart here.
What was measured:
Estrogen Receptor ERα = target: T1, Estrogen Receptor ERα (Homo sapiens, UniProt P03372); assay: cell-based; settings: for EC10, ERα (M): 10% of maximum effect of E2; for EC10, linear transformed / EC10, linear / logEC10: Bioassay ERα; for EC10, linear transformed / EC10, linear / EC10: in M; for EC10, linear: linear model fit; for logEC10: log-logistic model fit; for SR-ScoreERα: SR-Score, sigma k=1, x=5; for Efficacy % / EC10 / REPBPA: This Study; for EC10: ERα; for REPBPA: relative estrogenic potency vs BPA; for Specificity ratio (SRbaseline) SRERα: against baseline cytotoxicity; for log(1/EC10) ERα: input of the ToxPi score, values up to 1.00; for Relative effect potency REPERα: relative to BPA
T1 sequence (P03372 311-547 limits assumed): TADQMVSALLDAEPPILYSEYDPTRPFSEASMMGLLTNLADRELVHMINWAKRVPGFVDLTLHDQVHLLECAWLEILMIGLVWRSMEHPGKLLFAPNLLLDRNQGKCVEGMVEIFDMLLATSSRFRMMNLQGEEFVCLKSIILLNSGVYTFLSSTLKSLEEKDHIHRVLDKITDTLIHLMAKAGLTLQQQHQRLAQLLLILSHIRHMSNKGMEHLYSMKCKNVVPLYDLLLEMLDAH
In short: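 ERα-UAS-bla GripTite and PPARγ-UAS-bla β-lactamase reporter cells were seeded and held 24 h at 37 °C, 5% CO₂ before dosing. EC10 values used only concentrations below the IC10 from IncuCyte confluency. Emax% is the log-logistic curve maximum relative to the reference chemical's maximum.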

[1] = Octanol-water partition constant (log Kow) measurement, Sirius T3 potentiometric log P; type: physicochemical; settings: experimental, this study
In short: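 UV-metric titration (pH 2–12) gives pKa; octanol/buffer potentiometric titration gives log Kow from pKa shift. Triplicate titrations averaged.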

Tox21 assays [2] = settings: cited from earlier work
ERα = settings: cited from earlier work
PPARγ = system: PPARγ; parameters: method as in Crosthwait et al. 2025; Sun et al. 2025; settings: ref Crosthwait et al. 2025; Sun et al. 2025; cited from earlier work
Tox21 assays [3] = assay: Re-evaluated Tox21 data (Adamovsky et al.), REPBPA and SRbaseline; settings: for SRbaseline: Specificity Ratio;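 on all read-outs here: published Tox21 results reanalysed with a revised model predicting baseline toxicity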
Excerpt: We also reanalyzed the Tox21 data of Adamovsky et al. with the updated baseline toxicity prediction model (Table S2).

[4] = Abiotic CYP (aCYP) oxidation, remaining parent compound (Cparent-Ratio)
Description: (§1) The mixtures were adjusted to a final volume of 100 μL with acetonitrile (ACN). The reaction mix was incubated for 15 min at 30 °C and 1000 rpm on a Bioshake iQ orbital shaker from QInstruments (Jena, Germany). Additionally, a mixture without test compounds was prepared as a control. Subsequently, 10 μL of the reaction mixture was transferred into a conical dosing vial and evaporated under a nitrogen flow.
(§2) For chemical analysis, 10 μL of the reaction mixture was concentrated under vacuum (CentriVap, Labconco, Kansas City, MO, USA), diluted to 1 mg/L in ACN or ethyl acetate. The chemical analysis of the reaction mixtures was performed using liquid chromatography (LC) and gas chromatography (GC) coupled with various detection techniques, preferably Multiple Reaction Monitoring (MRM). Data acquisition and processing were carried out using the software MassHunter. Quantification was based on external calibrations.
(§3) The Cparent-Ratio quantifies the extent of oxidation of the parent compound after the abiotic CYP reaction. It was calculated as the ratio of the parent compound concentration after oxidation (C parent, after oxidation) to its concentration before oxidation (C parent, before oxidation) as shown in eq . […] 8 Cparent‐Ratio=Cparent,after oxidation/Cparent,before oxidation

[5] = 15 min
Description: as §1, §2, §3

[6] = ATG_NRF2_ARE_CIS_up, re-evaluated Tox21 data, ref Adamovsky et al 2024
[7] = TOX21_AR_LUC_MDAKB2_Antagonist_0,5nM_R1881, re-evaluated Tox21 data, ref Adamovsky et al 2024
[8] = TOX21_CAR_Agonist, re-evaluated Tox21 data, ref Adamovsky et al 2024
[9] = TOX21_CAR_Antagonist, re-evaluated Tox21 data, ref Adamovsky et al 2024
[10] = TOX21_PPARg_BLA_antagonist_ratio, re-evaluated Tox21 data, ref Adamovsky et al 2024
[11] = Tox21BLA, ref Adamovsky et al. 2024
[12] = Tox21Luc, ref Adamovsky et al. 2024
[13] = estrogen receptor from Atlantic cod (Gadus morhua), ref Goksøyr et al 2024
[14] = ATG_NRF2_ARE_CIS_up, Relative Effect Potency
[15] = TOX21_AR_LUC_MDAKB2_Antagonist_0,5nM_R1881, Relative Effect Potency
[16] = TOX21_AR_LUC_MDAKB2_Antagonist_0,5nM_R1881
[17] = TOX21_CAR_Agonist, Relative Effect Potency
[18] = TOX21_CAR_Antagonist, Relative Effect Potency
[19] = TOX21_PPARg_BLA_antagonist_ratio
[20] = Table S11, measured simultaneously with bioassay

For `CC(C)(c1ccc(O)cc1)c1ccc(O)cc1` [BPA, 4,4'-(Propane-2,2-diyl)diphenol, reference compound], the “EC10, ERα” value (Estrogen Receptor ERα) was 370 nM, the “EC10, ERα (M)” value (Estrogen Receptor ERα) was 3.70 × 10^–7 M and the “EC10, linear transformed” value (Estrogen Receptor ERα; dosing range high) was 1.46E-07. The “EC10, linear” value (Estrogen Receptor ERα; dosing range high) was 1.81E-07, the logEC10 (Estrogen Receptor ERα; dosing range high) was -7.06 and the “EC10, linear transformed” value (Estrogen Receptor ERα; dosing range low) was 3.70E-07. The “EC10, linear” value (Estrogen Receptor ERα; dosing range low) was 2.69E-07, the logEC10 (Estrogen Receptor ERα; dosing range low) was -6.43 and the SR-ScoreERα (Estrogen Receptor ERα) was 1.00. The Efficacy % (Estrogen Receptor ERα) was 37.53%, the EC10 (Estrogen Receptor ERα) was 3.70E-07 and the REPBPA (Estrogen Receptor ERα) was 1.00E+00. For the same molecule, the “Specificity ratio (SRbaseline) SRERα” value (Estrogen Receptor ERα) was 31.86, the “EC10, ERα” value (Estrogen Receptor ERα; effect) was 370 nM and the “SRcytotoxicity (ERα)” value (Estrogen Receptor ERα; human, 24 h) was 115. For the same molecule, the “Specificity ratio (SRcytotoxicity) SRERα” value (Estrogen Receptor ERα; human, 24 h) was 115.28, the “log(1/EC10) ERα” value (Estrogen Receptor ERα) was 0.82 and the times less potent than the reference estradiol (E2) (Estrogen Receptor ERα; ratio of EC10) was 18700. For the same molecule, the Emax (Estrogen Receptor ERα; read-out: Emax%ERα) was 38%, the “Relative effect potency REPERα” value (Estrogen Receptor ERα) was 1.00 and the “log Kow used” value [1] was 4.25. For the same molecule, the EC10 (Tox21 assays [2]; [6]) was 7.56e-06 M, the EC10 (Tox21 assays [2]; [7]) was 2.42e-06 M and the EC10 (Tox21 assays [2]; [8]) was 1.37e-06 M. For the same molecule, the EC10 (Tox21 assays [2]; [9]) was 5.45e-07 M, the EC10 (Tox21 assays [2]; [10]) was 7.65e-06 M and the EC10 (Tox21 assays [2]; [11]) was 5.92E-07. The EC10 (Tox21 assays [2]; [12]) was 5.63E-08, the EC50 (ERα; [13]) was 1900 nM and the EC50 (ERα; ref Kojima et al 2019) was 330 nM. For the same molecule, the EC50 (ERα; ref Pelch et al 2019) was 1200 nM, the Efficacy % (ERα; ref Pelch et al 2019) was 110.30% and the EC50 (ERα; ref Reiniger et Oehlmann 2024) was 2260 nM. The Efficacy % (ERα; ref Reiniger et Oehlmann 2024) was 9.42E+01%, the “PPARγ transactivation reported in the literature” value (shortened to “PPARγ transactivation reported”) (PPARγ) was “No agonism was detected” and the REPBPA (Tox21 assays [3]; [14]) was 1.00. It also gave an SRbaseline (Tox21 assays [3]; ATG_NRF2_ARE_CIS_up) of 10.51, an REPBPA (Tox21 assays [3]; [15]) of 1.00 and an SRbaseline (Tox21 assays [3]; [16]) of 32.80. It also gave an REPBPA (Tox21 assays [3]; [17]) of 1.00, an SRbaseline (Tox21 assays [3]; TOX21_CAR_Agonist) of 57.94 and an REPBPA (Tox21 assays [3]; [18]) of 1.00. For the same molecule, the SRbaseline (Tox21 assays [3]; TOX21_CAR_Antagonist) was 145.9, the SRbaseline (Tox21 assays [3]; [19]) was 10.39 and the REPBPA (Tox21 assays [3]; [11]) was 1.00E+00. For the same molecule, the REPBPA (Tox21 assays [3]; [12]) was 1.00E+00, the “reduction of C parent after aCYP oxidation” value ([4]; 15 min, 30 °C) was 15% and the “% Loss” value ([4]; Table S9, loss of parent after aCYP oxidation) was 15%. The “Cparent-Ratio Mean” value ([4]; Table S9, mean of two replicate experiments) was 0.85, the “Cparent-Ratio Rep.1 %” value ([4]; Table S9, replicate 1) was 86.04% and the “Cparent-Ratio Rep.1” value ([4]; Table S9, replicate 1, as fraction) was 0.86. The “Cparent-Ratio Rep.2 %” value ([4]; Table S9, replicate 2) was 84.76%, the “Cparent-Ratio Rep.2” value ([4]; Table S9, replicate 2, as fraction) was 0.85 and the “% Loss” value ([4]; Table S11) was 11%. For the same molecule, the “Cparent-Ratio Mean” value [4, 20] was 0.89, the “Cparent-Ratio Rep.1” value [4, 20] was 0.90 and the “Cparent-Ratio Rep.2” value [4, 20] was 0.88.
In the case of `Oc1ccc(C(c2ccc(O)cc2)(C(F)(F)F)C(F)(F)F)cc1` [BPAF, 4,4'-(1,1,1,3,3,3-Hexafluoropropane-2,2-diyl)diphenol], the “log Kow used” value [1] is listed as 4.72, the “% Loss” value [5] is listed as -9% and the EC10 (Tox21 assays [2]; [7]) is listed as 2.92e-06 M. The EC10 (Tox21 assays [2]; [8]) was 5.35e-06 M, the EC10 (Tox21 assays [2]; [9]) was 4.23e-07 M and the EC10 (Tox21 assays [2]; [10]) was 5.75e-06 M. The EC10 (Tox21 assays [2]; [11]) was 2.07E-07, the EC10 (Tox21 assays [2]; [12]) was 1.10E-08 and the EC50 (ERα; [13]) was 230 nM. The EC50 (ERα; ref Kojima et al 2019) was 390 nM, the EC50 (ERα; ref Pelch et al 2019) was 130 nM and the Efficacy % (ERα; ref Pelch et al 2019) was 91.50%. For the same molecule, the EC50 (ERα; ref Reiniger et Oehlmann 2024) was 434 nM, the Efficacy % (ERα; ref Reiniger et Oehlmann 2024) was 8.21E+01% and the “REPBPA,ERα reported in the literature” value (ERα; ref Text S5.4, Tables S2 and S7) was 3–5. The “PPARγ transactivation reported” value (PPARγ) was “No agonism was detected”, the REPBPA (Tox21 assays [3]; [15]) was 0.83 and the SRbaseline (Tox21 assays [3]; [16]) was 22.15. It also gave an REPBPA (Tox21 assays [3]; [17]) of 0.26, an SRbaseline (Tox21 assays [3]; TOX21_CAR_Agonist) of 12.10 and an REPBPA (Tox21 assays [3]; [18]) of 1.29. The SRbaseline (Tox21 assays [3]; TOX21_CAR_Antagonist) was 153.1, the SRbaseline (Tox21 assays [3]; [19]) was 11.28 and the REPBPA (Tox21 assays [3]; [11]) was 2.86E+00. For the same molecule, the REPBPA (Tox21 assays [3]; [12]) was 1.23E+00.
For `CCC(C)(c1ccc(O)cc1)c1ccc(O)cc1` [BPB, 4,4'-(Butane-2,2-diyl)diphenol], the “EC10, ERα (M)” value (Estrogen Receptor ERα) was 1.35 × 10^–7 M, the “EC10, linear transformed” value (Estrogen Receptor ERα; dosing range high) was 5.57E-08 and the “EC10, linear” value (Estrogen Receptor ERα; dosing range high) was 8.29E-08. For the same molecule, the logEC10 (Estrogen Receptor ERα; dosing range high) was -7.27, the “EC10, linear transformed” value (Estrogen Receptor ERα; dosing range low) was 1.07E-07 and the “EC10, linear” value (Estrogen Receptor ERα; dosing range low) was 1.35E-07. The logEC10 (Estrogen Receptor ERα; dosing range low) was -6.97, the “REPBPA,ERα (relative effect potency in relation to BPA)” value (Estrogen Receptor ERα; EC10,BPA/EC10,BPx) was 3 and the SR-ScoreERα (Estrogen Receptor ERα) was 1.00. For the same molecule, the Efficacy % (Estrogen Receptor ERα) was 23.67%, the EC10 (Estrogen Receptor ERα) was 1.35E-07 and the REPBPA (Estrogen Receptor ERα) was 2.74E+00. The “Specificity ratio (SRbaseline) SRERα” value (Estrogen Receptor ERα) was 66.42, the “Specificity ratio (SRcytotoxicity) SRERα” value (Estrogen Receptor ERα; against experimental cytotoxicity) was 154.61 and the “EC10, ERα” value (Estrogen Receptor ERα; effect) was 135 nM. The “log(1/EC10) ERα” value (Estrogen Receptor ERα) was 0.88, the Emax (Estrogen Receptor ERα; read-out: Emax%ERα, maximum efficacy relative to E2) was 24% and the “Relative effect potency REPERα” value (Estrogen Receptor ERα) was 2.74. The “log Kow used” value [1] was 3.72, the “% Loss” value [5] was 12% and the “Cparent-Ratio Mean” value [5] was 0.88. For the same molecule, the “Cparent-Ratio Rep.1” value [5] was 0.80, the “Cparent-Ratio Rep.1 %” value [5] was 79.66% and the “Cparent-Ratio Rep.2” value [5] was 0.96. The “Cparent-Ratio Rep.2 %” value [5] was 96.18%, the EC10 (Tox21 assays [2]; [6]) was 4.31e-07 M and the EC10 (Tox21 assays [2]; [7]) was 2.58e-06 M. The EC10 (Tox21 assays [2]; [8]) was 1.15e-06 M, the EC10 (Tox21 assays [2]; [9]) was 6.91e-08 M and the EC10 (Tox21 assays [2]; [11]) was 1.63E-07. The EC10 (Tox21 assays [2]; [12]) was 2.15E-08, the EC50 (ERα; [13]) was 1600 nM and the EC50 (ERα; ref Kojima et al 2019) was 74 nM. For the same molecule, the EC50 (ERα; ref Pelch et al 2019) was 320 nM, the Efficacy % (ERα; ref Pelch et al 2019) was 115.70% and the EC50 (ERα; ref Reiniger et Oehlmann 2024) was 1680 nM. For the same molecule, the Efficacy % (ERα; ref Reiniger et Oehlmann 2024) was 9.23E+01%, the “PPARγ transactivation reported” value (PPARγ) was “No agonism was detected” and the REPBPA (Tox21 assays [3]; [14]) was 17.53. It also gave an SRbaseline (Tox21 assays [3]; ATG_NRF2_ARE_CIS_up) of 112.9, an REPBPA (Tox21 assays [3]; [15]) of 0.94 and an SRbaseline (Tox21 assays [3]; [16]) of 18.87. The REPBPA (Tox21 assays [3]; [17]) was 1.20, the SRbaseline (Tox21 assays [3]; TOX21_CAR_Agonist) was 42.52 and the REPBPA (Tox21 assays [3]; [18]) was 7.88. The SRbaseline (Tox21 assays [3]; TOX21_CAR_Antagonist) was 704.7, the REPBPA (Tox21 assays [3]; [11]) was 3.63E+00 and the REPBPA (Tox21 assays [3]; [12]) was 1.63E+00.

Source: paper PMC12392461, “Beyond Estrogenicity: A Comparative Assessment of Bisphenol A and Its Alternatives in In Vitro Assays Questions Safety of Replacements” (Environmental Science & Technology, 2025)
